The test concerns the target T1, human TLR9 (Homo sapiens, UniProt Q9NR96).
T1 sequence (Q9NR96 26-1032): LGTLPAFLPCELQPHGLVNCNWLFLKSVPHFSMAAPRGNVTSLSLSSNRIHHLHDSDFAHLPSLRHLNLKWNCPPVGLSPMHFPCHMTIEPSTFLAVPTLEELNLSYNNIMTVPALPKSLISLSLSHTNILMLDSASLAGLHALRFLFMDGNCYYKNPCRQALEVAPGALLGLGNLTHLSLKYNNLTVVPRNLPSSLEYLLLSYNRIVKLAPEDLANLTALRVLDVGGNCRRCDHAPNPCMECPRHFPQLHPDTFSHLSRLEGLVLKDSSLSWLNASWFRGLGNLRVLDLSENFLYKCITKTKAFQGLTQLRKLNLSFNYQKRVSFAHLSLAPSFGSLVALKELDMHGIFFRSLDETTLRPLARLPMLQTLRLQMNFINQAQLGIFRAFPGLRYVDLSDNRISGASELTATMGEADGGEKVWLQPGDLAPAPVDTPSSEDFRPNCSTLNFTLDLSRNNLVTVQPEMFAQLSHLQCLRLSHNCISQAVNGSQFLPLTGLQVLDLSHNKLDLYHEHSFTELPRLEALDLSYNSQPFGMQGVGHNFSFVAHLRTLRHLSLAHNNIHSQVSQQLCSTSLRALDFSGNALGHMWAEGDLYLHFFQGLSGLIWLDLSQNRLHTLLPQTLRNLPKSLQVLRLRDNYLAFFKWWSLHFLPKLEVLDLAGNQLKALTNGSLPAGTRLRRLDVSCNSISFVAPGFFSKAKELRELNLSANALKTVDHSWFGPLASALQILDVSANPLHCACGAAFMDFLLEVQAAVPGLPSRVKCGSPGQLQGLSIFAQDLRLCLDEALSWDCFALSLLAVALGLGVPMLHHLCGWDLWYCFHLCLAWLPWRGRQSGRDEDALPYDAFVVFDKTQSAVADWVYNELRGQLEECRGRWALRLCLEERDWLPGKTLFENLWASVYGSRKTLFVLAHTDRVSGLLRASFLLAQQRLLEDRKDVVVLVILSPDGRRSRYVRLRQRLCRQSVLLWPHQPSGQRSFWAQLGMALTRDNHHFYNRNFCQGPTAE
The test can be described thus: HEK293-Blue-hTLR-9 cells assay (SEAP reporter, ODN2006 stimulation). The format is cell-based. The conditions noted are these: HEK293-Blue-hTLR9 cells, ODN2006 ligand, 20 hrs; read-out: HEK/hTLR9 IC50. The protocol: The following tests were carried out in order to determine the activity of the compounds of formula (I), (Ia) or (Ib) in HEK293-Blue-hTLR-7/8/9 cells assay.
HEK293-Blue-hTLR-9 Cells Assay:
A stable HEK293-Blue-hTLR-9 cell line was purchased from InvivoGen (Cat. #: hkb-htlr9, San Diego, California, USA). These cells were originally designed for studying the stimulation of human TLR9 by monitoring the activation of NF-κB. A SEAP (secreted embryonic alkaline phosphatase) reporter gene was placed under the control of the IFN-β minimal promoter fused to five NF-κB and AP-1-binding sites. The SEAP was induced by activating NF-κB and AP-1 via stimulating HEK-Blue hTLR9 cells with TLR9 ligands. Therefore the reporter expression was declined by TLR9 antagonist under the stimulation of a ligand, such as ODN2006 (Cat. #: tlrl-2006-1, Invivogen, San Diego, California, USA), for incubation of 20 hrs. The cell culture supernatant SEAP reporter activity was determined using QUANTI-Blue™ kit (Cat. #: rep-qb1, Invivogen, San Diego, California, USA) at a wavelength of 640 nm, a detection medium that turns purple or blue in the presence of alkaline phosphatase.
HEK293-Blue-hTLR9 cells were incubated at a density of 250,000˜450,000 cells/mL in a volume of 170 μL in a 96-well plate in Dulbecco's Modified Eagle's medium (DMEM) containing 4.5 g/L glucose, 50 U/mL penicillin, […], 2 mM L-glutamine, 10% (v/v) heat-inactivated fetal bovine serum with addition of 20 μL test compound in a serial dilution in the presence of final DMSO at 1% and 10 μL of 20 uM ODN2006 in above DMEM, perform incubation under 37° C. in a CO2 incubator for 20 hrs. Then 20 μL of the supernatant from each well was incubated with 180 μL Quanti-blue substrate solution at 37° C. for 2 h and the absorbance was read at 620-655 nm using a spectrophotometer. The signaling pathway that TLR9 activation leads to downstream NF-κB activation has been widely accepted, and therefore similar reporter assay was modified for evaluating TLR9 antagonist.

Each structure is given as a SMILES string.

Turning to `C[C@@H]1CN(c2ccc(C#N)c3ncccc23)C[C@@H]2CCN(Cc3cnc4c(c3)CNCC4)CCN21` [Example 10, 5-[(4R,10aS)-4-methyl-8-(5,6,7,8-tetrahydro-1,6-naphthyridin-3-ylmethyl)-1,3,4,6,7,9,10,10a-octahydropyrazino[1,2-d][1,4]diazepin-2-yl]quinoline-8-carbonitrile], the IC50 is less than 31.8 nM.

In the case of `C[C@@H]1CN(c2ccc(C#N)c3ncccc23)C[C@@H]2CCN(c3ccc4c(n3)CNCC4)CCN21` [Example 5, 5-[(4R,10aS)-4-methyl-8-(5,6,7,8-tetrahydro-1,7-naphthyridin-2-yl)-1,3,4,6,7,9,10,10a-octahydropyrazino[1,2-d][1,4]diazepin-2-yl]quinoline-8-carbonitrile], the IC50 worked out at 72.1 nM.

Regarding `C[C@@H]1CN(c2ccc(C#N)c3ncccc23)C[C@@H]2CCN(Cc3ncc(N4CCNCC4)cc3F)CCN21` [Example 23, 5-[(4R,10aS)-8-[(3-fluoro-5-piperazin-1-yl-2-pyridyl)methyl]-4-methyl-1,3,4,6,7,9,10,10a-octahydropyrazino[1,2-d][1,4]diazepin-2-yl]quinoline-8-carbonitrile], the IC50 is 39.1 nM.

Turning to `C[C@@H]1CN(c2ccc(C#N)c3ncccc23)C[C@@H]2CCN(Cc3ccc(N4C[C@@H](N)[C@@H](F)C4)cn3)CCN21` [Example 20, 5-[(4R,10aS)-8-[[5-[(3R,4S)-3-amino-4-fluoro-pyrrolidin-1-yl]-2-pyridyl]methyl]-4-methyl-1,3,4,6,7,9,10,10a-octahydropyrazino[1,2-d][1,4]diazepin-2-yl]quinoline-8-carbonitrile], the IC50 was determined as 34.9 nM.

As to `C[C@@H]1CN(c2ccc(C#N)c3ncccc23)C[C@@H]2CCN(c3ccc([C@H]4CNCCO4)cc3)CCN21` [Example 3, 5-[(4R,10aS)-4-methyl-8-[4-[(2S)-morpholin-2-yl]phenyl]-1,3,4,6,7,9,10,10a-octahydropyrazino[1,2-d][1,4]diazepin-2-yl]quinoline-8-carbonitrile], the IC50 turned out to be 52 nM.

Turning to `C[C@@H]1CN(c2ccc(C#N)c3ncccc23)C[C@@H]2CCN(c3cc4c(cn3)CNCC4)CCN21` [Example 7, 5-[(4R,10aS)-4-methyl-8-(5,6,7,8-tetrahydro-2,7-naphthyridin-3-yl)-1,3,4,6,7,9,10,10a-octahydropyrazino[1,2-d][1,4]diazepin-2-yl]quinoline-8-carbonitrile], the IC50 came to 81.9 nM.

With `C[C@@H]1CN(c2ccc(C#N)c3ncccc23)C[C@@H]2CCN(c3ccc(N4CCNCC4)nc3)CCN21` [Example 1, 5-[(4R,10aS)-4-methyl-8-(6-piperazin-1-yl-3-pyridyl)-1,3,4,6,7,9,10,10a-octahydropyrazino [1,2-d][1,4]diazepin-2-yl]quinoline-8-carbonitrile], the IC50 worked out at 207 nM.

On to `C[C@@H]1CN(c2ccc(C#N)c3ncccc23)C[C@@H]2CCN(Cc3ccc(N4CCNCC4)nc3)CCN21` [Example 17, 5-[(4R,10aS)-4-methyl-8-[(6-piperazin-1-yl-3-pyridyl)methyl]-1,3,4,6,7,9,10,10a-octahydropyrazino[1,2-d][1,4]diazepin-2-yl]quinoline-8-carbonitrile], for which the IC50 is less than 31.8 nM.

In the case of `CO[C@@H]1CN(c2ccc(CN3CC[C@H]4CN(c5ccc(C#N)c6ncccc56)C[C@@H](C)N4CC3)nc2)C[C@H]1N` [Example 22, 5-[(4R,10aS)-8-[[5-[(3R,4R)-3-amino-4-methoxy-pyrrolidin-1-yl]-2-pyridyl]methyl]-4-methyl-1,3,4,6,7,9,10,10a-octahydropyrazino[1,2-d][1,4]diazepin-2-yl]quinoline-8-carbonitrile], the IC50 stood at 62.8 nM.

Turning to `C[C@@H]1CN(c2ccc(C#N)c3ncccc23)C[C@@H]2CCN(Cc3cnc(N4CCNCC4)cn3)CCN21` [Example 15, 5-[(4R,10aS)-4-methyl-8-[(5-piperazin-1-ylpyrazin-2-yl)methyl]-1,3,4,6,7,9,10,10a-octahydropyrazino[1,2-d][1,4]diazepin-2-yl]quinoline-8-carbonitrile], the IC50 was 36.1 nM.

For `C[C@@H]1CN(c2cc(=O)n(C)c3ncccc23)C[C@@H]2CCN(Cc3ccc4c(c3)CNCC4)CCN21` [Example 28, 4-[(4R,10aS)-4-methyl-8-(1,2,3,4-tetrahydroisoquinolin-7-ylmethyl)-1,3,4,6,7,9,10,10a-octahydropyrazino[1,2-d][1,4]diazepin-2-yl]-1-methyl-1,8-naphthyridin-2-one], the IC50 is less than 31.8 nM.

On to `C[C@@H]1CN(c2ccc(C#N)c3ncccc23)C[C@@H]2CCN(Cc3ncc(N4CCNCC4)cn3)CCN21` [Example 13, 5-[(4R,10aS)-4-methyl-8-[(5-piperazin-1-ylpyrimidin-2-yl)methyl]-1,3,4,6,7,9,10,10a-octahydropyrazino[1,2-d][1,4]diazepin-2-yl]quinoline-8-carbonitrile], for which the IC50 was 96.4 nM.

As for `C[C@@H]1CN(c2ccc(C#N)c3ncccc23)C[C@@H]2CCN(Cc3cccc(N4CCNCC4)n3)CCN21` [Example 18, 5-[(4R,10aS)-4-methyl-8-[(6-piperazin-1-yl-2-pyridyl)methyl]-1,3,4,6,7,9,10,10a-octahydropyrazino[1,2-d][1,4]diazepin-2-yl]quinoline-8-carbonitrile], the IC50 is less than 31.8 nM.

With `CO[C@@H]1CN(c2cnc(CN3CC[C@H]4CN(c5ccc(C#N)n6ncc(F)c56)C[C@@H](C)N4CC3)c(F)c2)C[C@H]1N` [Example 27, 4-[(4R,10aS)-8-[[5-[(3R,4R)-3-amino-4-methoxy-pyrrolidin-1-yl]-3-fluoro-2-pyridyl]methyl]-4-methyl-1,3,4,6,7,9,10,10a-octahydropyrazino[1,2-d][1,4]diazepin-2-yl]-3-fluoro-pyrazolo[1,5-a]pyridine-7-carbonitrile], the IC50 is 65.4 nM.

In the case of `CO[C@@H]1CN(c2cnc(CN3CC[C@H]4CN(c5ccc(C#N)c6ncccc56)C[C@@H](C)N4CC3)c(F)c2)C[C@H]1N` [Example 24, 5-[(4R,10aS)-8-[[5-[(3R,4R)-3-amino-4-methoxy-pyrrolidin-1-yl]-3-fluoro-2-pyridyl]methyl]-4-methyl-1,3,4,6,7,9,10,10a-octahydropyrazino[1,2-d][1,4]diazepin-2-yl]quinoline-8-carbonitrile], the IC50 is 60.9 nM.

Consider `C[C@@H]1CN(c2ccc(C#N)c3ncccc23)C[C@@H]2CCN(Cc3cc4c(cn3)CNCC4)CCN21` [Example 8, 5-[(4R,10aS)-4-methyl-8-(5,6,7,8-tetrahydro-2,7-naphthyridin-3-ylmethyl)-1,3,4,6,7,9,10,10a-octahydropyrazino[1,2-d][1,4]diazepin-2-yl]quinoline-8-carbonitrile], for which the IC50 was determined as 62.2 nM.

Regarding `C[C@@H]1CN(c2ccc(C#N)c3ncccc23)C[C@@H]2CCN(c3ccc4c(n3)CCNC4)CCN21` [Example 6, 5-[(4R,10aS)-4-methyl-8-(5,6,7,8-tetrahydro-1,6-naphthyridin-2-yl)-1,3,4,6,7,9,10,10a-octahydropyrazino[1,2-d][1,4]diazepin-2-yl]quinoline-8-carbonitrile], the IC50 was found to be 101 nM.

Source of the values: patent US12421240B2, “Hydropyrazino[1,2-d][1,4]diazepine compounds for the treatment of autoimmune disease” (Hoffmann-La Roche Inc., priority 2019, dated 2025).
